What is called IC50 is the concentration at which inhibition is half-maximal.

Format in all cases: biochemical
Assay [1] deals with JNK3 (Homo sapiens (Human), UniProt P53779). The assay is described as follows: Measurement of JNK3 enzyme activity (33P-ATP filter-binding). To be noted: human JNK3, ATP 10 μM, ATF2 3 μM. On the procedure: The changes in JNK3 enzyme activity resulting from being treated with the inventive imidazole derivative (Formula 1) shown in a following Table 1 were identified through IC50.
JNK3, sequence (P53779 whole entry): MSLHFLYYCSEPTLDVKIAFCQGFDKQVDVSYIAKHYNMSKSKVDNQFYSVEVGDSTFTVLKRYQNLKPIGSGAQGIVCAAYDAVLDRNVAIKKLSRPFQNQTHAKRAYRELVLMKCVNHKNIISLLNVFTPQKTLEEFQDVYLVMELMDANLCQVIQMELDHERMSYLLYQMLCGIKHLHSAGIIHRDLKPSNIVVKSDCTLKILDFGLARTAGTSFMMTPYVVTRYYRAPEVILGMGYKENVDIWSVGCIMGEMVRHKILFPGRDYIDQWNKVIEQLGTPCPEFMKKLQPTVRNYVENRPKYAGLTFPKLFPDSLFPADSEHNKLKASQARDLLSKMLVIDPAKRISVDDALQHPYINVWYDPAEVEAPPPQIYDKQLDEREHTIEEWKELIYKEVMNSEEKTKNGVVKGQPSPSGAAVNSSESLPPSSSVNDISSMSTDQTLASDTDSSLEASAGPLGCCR
First of all, after a substrate was inserted into a prepared base reaction buffer solution (20 mM Hepes ([…]), 10 mM MgCl2, 1 mM EGTA, 0.02% Brij35, 0.02 mg/ml BSA, 0.1 mM Na3VO4, 2 mM DTT, 1% DMSO), a human JNK3 enzyme was added into a prepared substrate solution and then mixed together. As the substrate, ATP (10 μM) and ATF2 (3 μM) were used, among which the ATP was also used as a common substrate. Then, compounds of Examples 1-18 and 25-36, which were dissolved in 100% DMSO, were inserted into an enzyme reaction solution, and then cultured at room temperature for 20 minutes. Then, ^33P-ATP was inserted into the above reaction mixture solution to initiate a reaction, then cultured at room temperature for 2 hours, and then an enzyme activity was detected by means of a filter-binding method.
Particularly, after each 25 μl of the resulting solution was slowly spotted on P81 paper, it was inserted into a scintillation vial, and washed with 0.75% phosphoric acid four times for 10 minutes each, and with acetone once for 5 minutes. 5 ml of scintillation cocktail was inserted into the above scintillation vial and a resulting signal was read by means of a scintillation counter.
IC50 values of compounds of Examples 1-18 and 25-36 with regard to JNK3 enzyme activity were shown in a following Table 2.

The target in assay [2] is JNK1 (Homo sapiens (Human), UniProt P45983). The experiment in a line: Kinase profiling service (Reaction Biology Corp.). Particulars: compound 10 μM. On the procedure: (§1) An inhibitory activity of the compound (10 μM) of Example 34 against various protein kinases was measured by means of a kinase profiling service (ICso profiler express) of Reaction Biology Corp., wherein ICso, a concentration at which JNK enzyme activity was inhibited 50%, was also measured by sequentially reducing a concentration of the compound.
JNK1, sequence (P45983 whole entry): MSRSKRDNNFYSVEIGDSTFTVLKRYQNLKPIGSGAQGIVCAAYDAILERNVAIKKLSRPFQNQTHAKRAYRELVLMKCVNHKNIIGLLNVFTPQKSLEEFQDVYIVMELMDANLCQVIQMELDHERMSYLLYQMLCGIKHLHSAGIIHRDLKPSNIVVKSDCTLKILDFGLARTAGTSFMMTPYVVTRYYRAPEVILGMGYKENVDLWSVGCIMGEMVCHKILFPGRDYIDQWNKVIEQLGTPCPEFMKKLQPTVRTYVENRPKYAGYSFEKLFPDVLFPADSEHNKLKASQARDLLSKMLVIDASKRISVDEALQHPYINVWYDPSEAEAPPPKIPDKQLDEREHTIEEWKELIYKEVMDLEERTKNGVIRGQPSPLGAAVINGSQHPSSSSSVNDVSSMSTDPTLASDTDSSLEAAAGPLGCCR

Assay [3] relates to various protein kinases. The experiment in a line: Inhibitory activity against various protein kinases (selectivity, whole panel). Particulars: kinase panel, compound 10 μM. On the procedure: as §1
IC50 values of the compound of Example 34 with regard to various protein kinases were shown in a following Table 3.

For the molecule `N#CCc1cnc(-c2ccc3ccccc3c2)n1-c1ccnc(NC2CCCN(C(=O)C3CC3)C2)n1` (stereo not shown) [Example 34, 2-(1-(2-(1-(cyclopropanecarbonyl)piperidine-3-ylamino)pyrimidine-4-yl)-2-(naphthalene-2-yl)-1H-imidazole-5-yl)acetonitrile], the IC50 in assay [1] was less than 30 nM. In assay [2] (Data 1 and Data 2), the “% Enzyme Activity (relative to DMSO controls)” value was 2.84%. Moreover, the remaining activity at 10 µM in assay [2] (Data 1 and Data 2, read-out: % Enzyme Activity (relative to DMSO controls)) was determined as 3.04%. Further, the “selectivity for JNK1/2/3 over other protein kinases (in words)” value in assay [3] is “selectively inhibiting an activity of JNK1/2/3”.

For the origin of these results see patent US10301291B2, “Imidazole derivative having JNK inhibitory activity and use thereof” (SAMJIN PHARMACEUTICAL CO., LTD., priority 2016, dated 2019).
